Measurements from US20240368121A1, “ESTROGEN RECEPTOR DEGRADERS, PHARMACEUTICAL COMPOSITIONS THEREOF, AND THEIR THERAPEUTIC APPLICATIONS” (BioTheryX, Inc., priority 2021, published 2024).

Tests used:
Assay type in all cases: cell-based
[1] = system: MCF7 cells; experiment: Cell viability assay ([…]-GLO, 6-day treatment); conditions: Homo sapiens, MCF7, 144 h; MCF-7 cells, 6 days, CTG; read-out: Inhibition of Cancerous Cells IC50 MCF-7
In short: (§1)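 MCF7 (MEM) and T47D (RPMI with insulin), both with 10% FBS, at 1,000 cells/well, treated with a 10-point compound dose series for 6 days, with medium and compound refreshed once. Viability read by CellTiter-Glo luminescence.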

[2] = system: T47D cells; experiment: Cell viability assay ([…]-GLO, 6-day treatment); conditions: Homo sapiens, 144 h, 6 days, CTG, read-out: Inhibition of Cancerous Cells IC50 T47D
In short: as §1

[3] = biological target: T1, ERα (Homo sapiens, UniProt P03372); experiment: Protein degradation assay: ERα in MCF-7 cells via western blot; conditions: 6 h; for ERα Protein Degradation 1 nM: 1 nM compound; for ERα Protein Degradation 10 nM: 10 nM compound; for ERα Protein Degradation 100 nM: 100 nM compound
T1 construct: degrading an ERα in MCF-7 cells via a western blot; endogenous in cells; host or cells: MCF-7
T1 sequence (P03372 1-595): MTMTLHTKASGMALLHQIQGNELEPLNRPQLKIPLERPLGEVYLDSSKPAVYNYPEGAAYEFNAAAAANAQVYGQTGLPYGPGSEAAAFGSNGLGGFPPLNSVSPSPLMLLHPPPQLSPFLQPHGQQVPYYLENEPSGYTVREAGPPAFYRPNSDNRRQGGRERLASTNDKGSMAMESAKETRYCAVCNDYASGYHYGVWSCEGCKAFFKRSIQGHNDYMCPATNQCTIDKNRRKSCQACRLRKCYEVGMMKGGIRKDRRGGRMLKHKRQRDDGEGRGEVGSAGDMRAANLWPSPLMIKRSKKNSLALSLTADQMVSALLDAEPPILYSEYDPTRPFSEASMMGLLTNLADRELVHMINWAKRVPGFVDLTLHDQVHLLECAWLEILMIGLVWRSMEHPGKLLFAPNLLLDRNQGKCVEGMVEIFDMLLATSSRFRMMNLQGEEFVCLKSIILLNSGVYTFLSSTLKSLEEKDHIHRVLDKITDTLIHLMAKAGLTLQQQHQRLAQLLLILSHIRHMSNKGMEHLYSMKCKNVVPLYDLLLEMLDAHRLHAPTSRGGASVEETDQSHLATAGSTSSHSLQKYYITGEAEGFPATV
In short: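 MCF-7 cells in MEM/10% FBS with insulin, seeded 300,000/well, treated 6 h at set concentrations (e.g., 1 nM–1 μM). Whole-cell lysates immunoblotted for ERα with GAPDH loading control, chemiluminescent detection; percentage degradation reported in binned categories (≥50%, 25–50%, 10–25%, <10%).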

SMILES | IC50 [1] [nM] | IC50 [2] [nM] | ERα Protein Degradation 1 nM [3] | ERα Protein Degradation 10 nM [3] | ERα Protein Degradation 100 nM [3]
O=C1CCN(c2ccc(OCC(=O)N3CCN(CCCCOc4ccc([C@@H]5c6ccc(O)cc6CC[C@@H]5c5ccccc5)cc4)CC3)cc2)C(=O)N1 [Compound B10, 1-(4-(2-(4-(4-(4-((1R,2S)-6-hydroxy-2-phenyl-1,2,3,4-tetrahydronaphthalen-1-yl)phenoxy)butyl)piperazin-1-yl)-2-oxoethoxy)phenyl)dihydropyrimidine-2,4(1H,3H)-dione] | 1.6 | 0.76 | D (a percentage degradation value of less than 10%) | D (a percentage degradation value of less than 10%) | D (a percentage degradation value of less than 10%)
CC1(Cc2ccc(OCCCCN3CCN(C(=O)COc4cccc(C5CCC(=O)NC5=O)c4)CC3)cc2)C(c2ccc(O)cc2)=Nc2ccc(O)cc21 (stereo not shown) [Compound D7, 3-(3-(2-(4-(4-(4-((5-Hydroxy-2-(4-hydroxyphenyl)-3-methyl-3H-indol-3-yl)-methyl)phenoxy)butyl)piperazin-1-yl)-2-oxoethoxy)phenyl)piperidine-2,6-dione] | 101 | 44 | D (a percentage degradation value of less than 10%) | D (a percentage degradation value of less than 10%) | D (a percentage degradation value of less than 10%)
O=C1CCC(Nc2cccc(N3CCN(CC4CCN(c5ccc([C@@H]6c7ccc(O)cc7CC[C@@H]6c6ccccc6)cc5)CC4)CC3)c2)C(=O)N1 (stereo partly drawn) [Compound B13, 3-((3-(4-((1-(4-((1R,2S)-6-hydroxy-2-phenyl-1,2,3,4-tetrahydronaphthalen-1-yl)phenyl)piperidin-4-yl)methyl)piperazin-1-yl)phenyl)amino)piperidine-2,6-dione] | 16 | 4.6 | D (a percentage degradation value of less than 10%) | D (a percentage degradation value of less than 10%) | D (a percentage degradation value of less than 10%)

The next lines start with results.

IC50 [1] [nM] | IC50 [2] [nM] | SMILES | ERα Protein Degradation 1 nM [3] | ERα Protein Degradation 10 nM [3] | ERα Protein Degradation 100 nM [3]
0.2 | 0.44 | O=C1CCC(N2Cc3c(cc(F)cc3C3CCN(CC4CCN(c5ccc([C@@H]6c7ccc(O)cc7CC[C@@H]6c6ccccc6)cc5)CC4)CC3)C2=O)C(=O)N1 (stereo partly drawn) [Compound A3, 3-(6-Fluoro-4-(1-((1-(4-((1R,2S)-6-hydroxy-2-phenyl-1,2,3,4-tetrahydro-naphthalen-1-yl)phenyl)piperidin-4-yl)methyl)piperidin-4-yl)-1-oxoisoindolin-2-yl)piperidine-2,6-dione] | D (a percentage degradation value of less than 10%) | D (a percentage degradation value of less than 10%) | D (a percentage degradation value of less than 10%)
145 | 0.18 | O=C1CCC(N2Cc3c(csc3C3CCN(CC4CCN(c5ccc([C@@H]6c7ccc(O)cc7CC[C@@H]6c6ccccc6)cc5)CC4)CC3)C2=O)C(=O)N1 (stereo partly drawn) [Compound A7, 3-(1-(1-((1-(4-((1R,2S)-6-hydroxy-2-phenyl-1,2,3,4-tetrahydronaphthalen-1-yl)phenyl)piperidin-4-yl)methyl)piperidin-4-yl)-4-oxo-4H-thieno[3,4-c]pyrrol-5(6H)-yl)-piperidine-2,6-dione] | D (a percentage degradation value of less than 10%) | D (a percentage degradation value of less than 10%) | D (a percentage degradation value of less than 10%)
